Like-named read-outs stand apart in the source and are kept apart here.
Experiments:
P. aeruginosa [1] = test: Neutropenic thigh infection model (CD-1 mice), exposure response of ceftazidime q2h and avibactam; type: in vivo, Pseudomonas aeruginosa; conditions: ceftazidime monotherapy q2h
Experimental: CD-1 neutropenic mice were infected with appr. 10^6 cfu β-lactamase-producing P. aeruginosa strains in the thigh.
Outbred female CD-1 mice (Charles River, Netherlands), 4 to 5 weeks old, weighing 20 to 25 g were used in the experiments. Granulocytopenia was induced by two doses of cyclophosphamide s.c.: one at four days (150 mg/kg) and the other at one day (100 mg/kg) before the infection experiment.
The neutropenic mice were infected with 2 P. aeruginosa strains per animal, one in the left and one in the right thigh. 0.05 mL of bacterial suspension consisting of approximately 10^5-10^6 bacteria was inoculated intramuscularly. […] All dosing regimens were performed in at least two animals. At t=0 h, 2 mice were humanely sacrificed to determine the initial inoculum just before treatment. All other animals were sacrificed at t=24 h unless the welfare of the animals indicated earlier termination was necessary, following animal welfare regulations. Thighs were taken and moved to a pre-cooled 10-mL plastic tube (Transport Tube, Omnilabo, NL) ? containing 2 mL phosphate buffered saline (PBS; NaCl 8.00 g/L, Na2HPO42H2 1.44 g/L, KH2PO4 0.26 g/L, pH 7.2-7.4). Subsequently thighs were ground using an Ultra-Turrax (IKA Labortechnik, Germany). A tenfold dilution series was prepared and 3×10 μL plated (Chromagar, Biomerieux, NL) per dilution. The following day, colonies were counted and the number of cfu per thigh calculated. The drug effect was then determined as the difference between the log10[cfu/thigh] values at t=24 h and t=0 h (mean value of 2 mice) expressed as “dcfu”.
The amount of avibactam administered varied in frequency and dose. […] The drug effect was determined as the difference between the log10 [cfu/thigh] values at t=24 h and t=0 h (mean value of 2 mice) expressed as dcfu. Free drug concentrations were used in all calculations. […] Oral presentation at the ? 52nd Interscience Conference on Antimicrobial Agents and Chemotherapy, San Francisco, Calif. Abstract #A-1760).

[2] = test system: Gram-positive or Gram-negative bacterial strains; test: MIC in pulmonary surfactant compared with CAMHB alone, whole strain panel; type: cell-based; conditions: up to 10% pulmonary surfactant vs CAMHB alone; any strain tested
Experimental: (§1) The bacterial strains used in this testing were part of the microbiological culture collection housed at AstraZeneca R&D Boston (AstraZeneca Research Collection, designated ARC). The panel of bacterial isolates used for this testing was comprised of five CLSI QC reference strains and the remainder were either recent clinical isolates expressing β-lactamases or isolates from the primary bacterial screening panels.
(§2) MIC values were determined using the CLSI broth microdilution methodology with slight variation. Stock compound mother plates were prepared and used to spot 2 μL aliquots of serial 2-fold drug dilutions to columns 1-11 of 96-well daughter plates using a Perkin-Elmer MiniTrak™ MultiPosition dispenser. […] An inoculum volume of 100 μL (5×10E^5 CFU/mL) in CAMHB containing 0, 1, 2.5, 5, or 10% pulmonary surfactant was added using a multichannel Finnpipette® to each well of the 96-well plate.
The minimum inhibitory concentration (MIC) values against each organism/drug combination were determined using broth microdilution methodology according to CLSI guidelines. The recommended reference bacterial strains for each test group and reference compounds were incorporated into each test. […]
MIC values for individual isolates were read visually. […]

S. aureus = test: MIC, CLSI broth microdilution in CAMHB with 0-10% pulmonary surfactant (avibactam fixed at 4 μg/mL in combination); type: cell-based, Staphylococcus aureus
Experimental: as §1, §2
(§3) The minimum inhibitory concentration (MIC) values against each organism/drug combination were determined using broth microdilution methodology according to CLSI guidelines. The recommended reference bacterial strains for each test group and reference compounds were incorporated into each test. For Gram-negatives, the reference bacterial strains were Escherichia coli ATCC 25922, E. coli ATCC 35218, Klebsiella pneumoniae ATCC 700603, and Pseudomonas aeruginosa ATCC 27853. Staphylococcus aureus ATCC 29213 was the reference bacterial strain for the Gram-positives.
(§4) MIC values for individual isolates were read visually. The MICs for each compound or combination in pulmonary surfactant was compared to the compound or combination tested in CAMHB alone.

P. aeruginosa [3] = test: as above; type: cell-based, Pseudomonas aeruginosa; conditions: Pseudomonas aeruginosa, read-out: MIC
Experimental: as §1, §2, §3, §4

Structure (SMILES): CC(C)(O/N=C(\C(=O)N[C@@H]1C(=O)N2C(C(=O)[O-])=C(C[n+]3ccccc3)CS[C@H]12)c1csc(N)n1)C(=O)O [ceftazidime, (6R,7R)-7-[[(2Z)-2-(2-amino-1,3-thiazol-4-yl)-2-(1-hydroxy-2-methyl-1-oxopropan-2-yl)oxyiminoacetyl]amino]-8-oxo-3-(pyridin-1-ium-1-ylmethyl)-5-thia-1-azabicyclo[4.2.0]oct-2-ene-2-carboxylate pentahydrate]
- static % fT > MIC (CAZ) (P. aeruginosa [1]; isolate no. 1): no effect
- static % fT > MIC (CAZ) (P. aeruginosa [1]; isolate no. 3): 0%
- static % fT > MIC (CAZ) (P. aeruginosa [1]; isolate no. 5): 3%
- static % fT > MIC (CAZ) (P. aeruginosa [1]; isolate no. 7): 7.2%
- static % fT > MIC (CAZ) (P. aeruginosa [1]; isolate no. 11): no effect
- static % fT > MIC (CAZ) (P. aeruginosa [1]; isolate no. 18): 9%
- static % fT > MIC (CAZ) (P. aeruginosa [1]; isolate no. 19): 38%
- MIC increase in pulmonary surfactant [2]: no MIC increases were observed
- MIC (S. aureus; S. aureus ARC12 (CLSI QC strain, ATCC 29213), surfactant 0%): 8 µg/mL
- MIC (S. aureus; S. aureus ARC12 (CLSI QC strain, ATCC 29213), surfactant 1%): 16 µg/mL
- MIC (S. aureus; S. aureus ARC12 (CLSI QC strain, ATCC 29213), surfactant 2.5%): 16 µg/mL
- MIC (S. aureus; S. aureus ARC12 (CLSI QC strain, ATCC 29213), surfactant 5%): 8 µg/mL
- MIC (S. aureus; S. aureus ARC12 (CLSI QC strain, ATCC 29213), surfactant 10%): 8 µg/mL
- MIC (S. aureus; S. aureus ARC516 (MRSA, quinolone-resistant), surfactant 0%): >64 µg/mL
- MIC (S. aureus; S. aureus ARC516 (MRSA, quinolone-resistant), surfactant 1%): >64 µg/mL
- MIC (S. aureus; S. aureus ARC516 (MRSA, quinolone-resistant), surfactant 2.5%): >64 µg/mL
- MIC (S. aureus; S. aureus ARC516 (MRSA, quinolone-resistant), surfactant 5%): >64 µg/mL
- MIC (S. aureus; S. aureus ARC516 (MRSA, quinolone-resistant), surfactant 10%): >64 µg/mL
- MIC (P. aeruginosa [3]; ATCC27853, P. aeruginosa ARC3 (CLSI QC strain, ATCC 27853), surfactant 1%): 1 µg/mL
- MIC (P. aeruginosa [3]; ATCC27853, P. aeruginosa ARC3 (CLSI QC strain, ATCC 27853), surfactant 2.5%): 2 µg/mL
- MIC (P. aeruginosa [3]; ATCC27853, P. aeruginosa ARC3 (CLSI QC strain, ATCC 27853), surfactant 5%): 1 µg/mL
- MIC (P. aeruginosa [3]; ATCC27853, P. aeruginosa ARC3 (CLSI QC strain, ATCC 27853), surfactant 10%): 2 µg/mL
- MIC (P. aeruginosa [3]; ATCC27853, P. aeruginosa ARC3 (CLSI QC strain, ATCC 27853), surfactant 0%): 1 µg/mL
- MIC (P. aeruginosa [3]; P. aeruginosa ARC2532 (Clinical isolate), surfactant 0%): 2 µg/mL
- MIC (P. aeruginosa [3]; P. aeruginosa ARC2532 (Clinical isolate), surfactant 1%): 2 µg/mL
- MIC (P. aeruginosa [3]; P. aeruginosa ARC2532 (Clinical isolate), surfactant 2.5%): 2 µg/mL
- MIC (P. aeruginosa [3]; P. aeruginosa ARC2532 (Clinical isolate), surfactant 5%): 2 µg/mL
- MIC (P. aeruginosa [3]; P. aeruginosa ARC2532 (Clinical isolate), surfactant 10%): 2 µg/mL
- MIC (P. aeruginosa [3]; P. aeruginosa ARC2761 (Clinical isolate), surfactant 1%): 2 µg/mL
- MIC (P. aeruginosa [3]; P. aeruginosa ARC2761 (Clinical isolate), surfactant 2.5%): 1 µg/mL
- MIC (P. aeruginosa [3]; P. aeruginosa ARC2761 (Clinical isolate), surfactant 5%): 2 µg/mL
- MIC (P. aeruginosa [3]; P. aeruginosa ARC2761 (Clinical isolate), surfactant 10%): 2 µg/mL
- MIC (P. aeruginosa [3]; P. aeruginosa ARC3508 (derepressed AmpC), surfactant 0%): 32 µg/mL
- MIC (P. aeruginosa [3]; P. aeruginosa ARC3508 (derepressed AmpC), surfactant 1%): 32 µg/mL
- MIC (P. aeruginosa [3]; P. aeruginosa ARC3508 (derepressed AmpC), surfactant 2.5%): 32 µg/mL
- MIC (P. aeruginosa [3]; P. aeruginosa ARC3508 (derepressed AmpC), surfactant 5%): 32 µg/mL
- MIC (P. aeruginosa [3]; P. aeruginosa ARC3508 (derepressed AmpC), surfactant 10%): 32 µg/mL
- MIC (P. aeruginosa [3]; PAO1, P. aeruginosa ARC545 (PAO1), surfactant 0%): 1 µg/mL
- MIC (P. aeruginosa [3]; PAO1, P. aeruginosa ARC545 (PAO1), surfactant 1%): 1 µg/mL
- MIC (P. aeruginosa [3]; PAO1, P. aeruginosa ARC545 (PAO1), surfactant 2.5%): 1 µg/mL
- MIC (P. aeruginosa [3]; PAO1, P. aeruginosa ARC545 (PAO1), surfactant 5%): 1 µg/mL
- MIC (P. aeruginosa [3]; PAO1, P. aeruginosa ARC545 (PAO1), surfactant 10%): 1 µg/mL
- MIC (P. aeruginosa [3]; P. aeruginosa ARC2761 (Clinical isolate), surfactant 0%): 2 µg/mL

Source: patent US20150374673A1, “Combination Therapy for the Treatment of Nosocomial Pneumonia” (priority 2013, published 2015)
